How the values were obtained:
Format in all cases: in vivo, human
[1] = system: male subjects with hormone refractory prostate cancer; test: Visual Analog Scale (VAS) pain assessment of treated subjects; conditions: independent of the effects of morphine
Description: Studies were performed on male subjects with asymptomatic hormone refractory prostate cancer with rising PSA levels and on male subjects with symptomatic hormone refractory prostate cancer with rising PSA levels and pain. Subjects in the phase II studies had castrate levels of testosterone, either due to pharmacologic intervention, via leuprolide (Lupron®) or goserelin (Zoladex®), or via surgical castration. Subjects received ABT-627 or placebo. The following tests were conducted: ABT-627 was formulated in 2.5 and 10 mg doses. An oral liquid formulation of ABT-627 was also prepared as follows: 1 mg/ml ABT-627, 50% glycerin, 14% alcohol, and water. Matching placebos were also provided. […] The log also contained a table on which was recorded all daily pain medication consumed by the patient. […] Clinical personnel who received the logs measured the score by measuring the distance (in mm) from the “no pain” end mark to the point where the subject's line crossed the VAS line. […] The weekly VAS scores were calculated excluding the lowest and highest score for each week and averaging the remaining five scores. […] The duration of the response, defined as the time from baseline to the last weekly assessment for which the responder definition was satisfied, was analyzed using the Kaplan-Meier methodology and logrank test.

[2] = system: male subjects with hormone refractory prostate cancer; test: Bone scan (bone scan index, skeletal involvement) of treated subjects; conditions: versus placebo
Description: (§1) Studies were performed on male subjects with asymptomatic hormone refractory prostate cancer with rising PSA levels and on male subjects with symptomatic hormone refractory prostate cancer with rising PSA levels and pain. Subjects in the phase II studies had castrate levels of testosterone, either due to pharmacologic intervention, via leuprolide (Lupron®) or goserelin (Zoladex®), or via surgical castration. Subjects received ABT-627 or placebo. The following tests were conducted:
(§2) ABT-627 was formulated in 2.5 and 10 mg doses. An oral liquid formulation of ABT-627 was also prepared as follows: 1 mg/ml ABT-627, 50% glycerin, 14% alcohol, and water. Matching placebos were also provided.
Bone scans were performed with an NDA approved, Tc-99m phosphonate type radiopharmaceutical. This technique uses whole body format (skull to feet) so that anterior and posterior images are presented when using a 510 K-approved gamma camera. […] Each site was evaluated against a confidence score of 1 to 5, where 1 is negative, 2 is probably negative, 3 is equivocal, 4 is probably positive, and 5 is definitely positive. […] In addition, in a blinded study, a reference nuclear medicine physician interpreted the bone scans quantitatively as follows: the percent of involved bone was estimated for each individual bone, and the individual bone involvement was summed to calculate a global percent bone scan index (BSI). […]

[3] = system: male subjects with hormone refractory prostate cancer; test: Crosslinked N-telopeptide levels of treated subjects; conditions: subjects treated versus placebo
Description: as §1, §2
Markers of osteoblastic activity were assessed using […]. Bone markers include bone alkaline phosphatase (BAP), deoxypridinoline, and N-telopeptide of Type I collagen. Blood samples were collected prior to dosing on Day 1, Day 42, Day 84, Day 168, and every 28 days after Day 168, with a final collection on the last day of the study.
Cross-linked N-telopeptide levels were determined using the DiaSorin (Stillwater, MN) assay for the quantitative determination of carboxyterminal cross-linked telopeptide of type I collagen (ICTP) in human serum by equilibrium radioimmunoassay (RIA). […] The bound tracer in the pellet was counted with a gamma counter. […]

[4] = system: male subjects with hormone refractory prostate cancer; test: Chromagranin-A levels in serum of treated subjects; conditions: 2.5 mg/day
Description: as §1, §2
The effect of ABT-627 adminstration on Chromagranin-A levels in human serum samples was determined by proprietary assay conducted at the Nichols Institute. The procedure is a two site chemiluminescence assay (ICMA) using one monoclonal antibody conjugated with biotin, another monoclonal antibody labeled with an acridinium ester, and an avidin-coated solid phase. The antibody/Chromagranin-A/antibody complex is bound to the solid phase by the avidin-biotin interaction and unbound materials are removed by washing. The bound, acridinium-labeled material produces light that is detected in a luminometer after addition of triggering agents. The Limit of Detection (LOD) for the assay was 0.07 ng/mL.

## CCCCCN(CCCC)C(=O)CN1C[C@H](c2ccc3c(c2)OCO3)[C@@H](C(=O)O)[C@@H]1c1ccc(OC)cc1 [ABT-627]
[1]
  VAS scores, pain (AUC, FIG. 3): VAS scores showed a decrease in pain
[2]
  proportion of total skeletal involvement by bone scan (FIG. 6): a decrease in the proportion of total skeketal involvement
[3]
  Crosslinked N-telopeptide levels (AUC, FIG. 4): Crosslinked N-telopeptide levels decreased
[4]
  average change from baseline for Chromagranin-A (AUC, FIG. 8): the average change from baseline for Chromagranin-A was higher

— patent publication US7208517B1, “Endothelin antagonists” (Abbott Labortories, priority 1994, dated 2007)
